# According to US9395375B2, “Method of treating sigma 1 receptor-expressing tumors with interleukin 24” (Research Foundation of the City University of New York, priority 2013, dated 2016):
# Assays:
# [1] = test system: DU-145 cells; experiment: Reactive oxygen species (ROS) generation, DCFH-DA fluorescence; format: cell-based, human; conditions: Ad.IL-24 plus 10 μM (+)SKF-10047 for 24 h
# Description: Intracellular ROS levels were measured with 10 μM DCF-DA 30 min after treatments. The results are expressed as the mean±S.D. of three independent experiments. The time course of mitochondrial changes (ROS generation) were determined after treatment of DU145 cells with Ad.IL-24. Cells were infected with Ad.IL-24, collected at 24 h, and stained for ROS production with dichlorofluorescin diacetate (DCFH-DA). […] Taken together, the inhibition by an S1R agonist of IL-24-mediated ER stress, Ca^++ mobilization and ROS production, further strengthen the hypothesis that IL-24 action in cancer cells is mediated by an antagonistic effect of IL-24 on S1R.
# Assessment of reactive oxygen species (ROS) generation. DU-145 cells were seeded in 96-well plates at a concentration of 1×10^4 cells/well and were infected with Ad.IL-24 for 12 h. The cell cultures were treated with 10 μM 2,7-dichloro-fluorescein diacetate (DCFH-DA; Sigma-Aldrich, St. Louis, Mo.) in PBS for 30 min After incubation, the media was discarded, and the cells were washed with PBS. The fluorescence intensity was determined using a fluorescence plate reader at 485 nm for excitation and 530 nm for emission.
# [2] = test system: BiP, CHOP, and p-eIF2a proteins; experiment: Western blot analysis of ER stress markers; format: cell-based; conditions: 100 pfu/cell Ad.IL-24 plus 10 μM (+)-SKF10047; 48 h
# Description: Cells were infected with 100 pfu/cell of Ad.vector or Ad.IL-24, and treated with or without 10 μM (+)-SKF10047 (SKF) for indicated times. In FIG. 2A, changes in BiP, CHOP, and p-eIF2a proteins were evaluated by Western blot analysis 48 h after indicated treatments. […] Up-regulation by IL-24 of several ER stress markers is shown, including p-eIF2a, CHOP, and BiP, were inhibited by treatment with (+)SKF-10047.
# Western Blot Analysis. Protein extracts were prepared with RIPA buffer containing a mixture of protease inhibitors as described in Sauane M, Su Z Z, Dash R, et al. “Ceramide plays a prominent role in MDA-7/IL-24-induced cancer-specific apoptosis” J Cell Physiol. 2010 March; 222(3):546-55. Fifty micrograms of protein was applied to a 12% SDS/PAGE and transferred to nitrocellulose membranes. The membranes were probed with polyclonal or monoclonal antibodies to IL-24, p-eIF2a, BiP, CHOP, Sigma 1 Receptor, and beta-actin.
# [3] = test system: metastatic prostate cancer cell lines (LNCaP, DU145 and PC-3); experiment: MTT cell viability assay after Ad.IL-24 infection with or without S1R agonist; format: cell-based, human
# Description: (§1) Referring to FIG. 1A, FIG. 1B and FIG. 1C, to test this hypothesis Ad.IL-24 was used to treat normal human immortalized epithelial cells (RWPE1), and three metastatic prostate cancer cell lines (LNCaP, DU145 and PC-3) in the presence or absence of the specific S1R agonist, (+)SKF-10047, and measured cell viability and induction of apoptosis by MTT, clonogenic, and AnnexinV-FITC/PI assays. (+)SKF-10047 inhibited Ad.IL-24-mediated killing in PC-3, LNCaP and DU145 cells.
# In FIG. 1A, cells were infected with 100 pfu/cell of Ad.vector or Ad.IL-24, and treated with or without 10 μM (+)-SKF10047—a S1R agonist. Cell viability was determined by MTT assay 4 days post-infection. MTT absorbance of untreated control cells was set at 1 to determine relative number of viable cells. […] In FIG. 1B, cells were incubated in the absence or presence of 10 μM (+)-SKF10047 after infection with Ad.IL-24. Forty-eight hours post-infection, percentage of apoptosis was determined by staining with AnnexinV-FITC/PI. […] In FIG. 1C, cells were incubated in the absence or presence of 10 μM (+)-SKF10047 after infection with Ad.IL-24. […]
# MTT Assays. […] Cell growth and viable cell numbers were monitored by 3-(4,5 dimethylthiazol-2-yl)-2,5-diphenyltetrazolium bromide (MTT) staining as described in Sauane M, Su Z Z, Dash R, et al. “Ceramide plays a prominent role in MDA-7/IL-24-induced cancer-specific apoptosis” J Cell Physiol. […]
# [4] = test system: prostate DU145; experiment: Calcium imaging (Fura-2), cytosolic calcium; format: cell-based, human; conditions: Ad.IL-24 plus 10 μM (+)-SKF10047, 12 hours
# Description: FIG. 2B depicts a ratio of calcium ratios for cells infected with 100 pfu/cell of Ad.vector or Ad.IL-24, and treated with or without 10 μM (+)-SKF10047. The ratios are the levels cytosolic calcium at T=0 and T=12 hours. A determination was made concerning whether Ad.IL-24 caused any changes in the cytosolic levels of Ca^++ in prostate cancer cells and if Ca^++ mobilization is S1R-dependent after Ad.IL-24 infection. Ad.IL-24 infection increased cytosolic Ca^++ levels in prostate DU145 within 12 hours. The increase in Ca^++ was blocked by S1R agonist (+)-SKF10047.
# Calcium imaging. For Calcium (Ca^++) imaging, cells were plated in 35 mm glass bottom petri dishes (MatTek) and allowed to attach for 12 h prior to treatment(s). Inhibitors were added 4 h after infection with adenovirus. After 12 h, cells were then rinsed with a Ringer's solution maintained at 37° C. Cells were then incubated in Ringer's solution containing 0.5 μM Fura-2 tetra-acetoxymethyl ester (Fura-2) (Molecular Probes), 10% Pluronic F127 and 250 μm sulfinpyrazone (Sigma-Aldrich, Inc) for 40 min at 22° C. Fura-2 was excited by alternating 340 and 380 nm light and images were obtained every 50 ms as a measure of Ca^++ concentration. Background intensity was zero. […]
# [5] = test system: metastatic prostate cancer cell lines (LNCaP, DU145 and PC-3); experiment: Clonogenic (colony formation) assay after Ad.IL-24 infection with or without S1R agonist; format: cell-based, human; conditions: Ad.IL-24 plus 10 μM (+)-SKF10047; 2 weeks
# Description: as §1
# (§2) In FIG. 1A, cells were infected with 100 pfu/cell of Ad.vector or Ad.IL-24, and treated with or without 10 μM (+)-SKF10047—a S1R agonist. Cell viability was determined by MTT assay 4 days post-infection. MTT absorbance of untreated control cells was set at 1 to determine relative number of viable cells. […] In FIG. 1B, cells were incubated in the absence or presence of 10 μM (+)-SKF10047 after infection with Ad.IL-24. Forty-eight hours post-infection, percentage of apoptosis was determined by staining with AnnexinV-FITC/PI. […] In FIG. 1C, cells were incubated in the absence or presence of 10 μM (+)-SKF10047 after infection with Ad.IL-24. Cells were subjected to clonogenic assay for 2 weeks. Results shown are an average of three independent experiments ±SD.
# Colony formation assays. Cells were infected with 100 pfu/cell with Ad.vector or Ad.IL-24. The next day, 200 to 500 cells were seeded to determine colony-forming ability. […]
# [6] = test system: metastatic prostate cancer cell lines (LNCaP, DU145 and PC-3); experiment: AnnexinV-FITC/PI apoptosis assay after Ad.IL-24 infection with or without S1R agonist; format: cell-based, human; conditions: for apoptosis by Ad.IL-24 (summary statements): prostate cancer cells, effect of S1R agonist
# Description: as §1, §2
# Annexin V binding assays. Cells were trypsinized, washed once with complete medium and PBS, resuspended in 0.5 ml of binding buffer containing 2.5 mmol/L CaCl2, and stained with allophycocyanin-labeled Annexin V (Becton Dickinson Biosciences, Palo Alto, Calif.) and propidium iodide (PI) for 15 min at room temperature. Flow cytometry assays were performed as described in Sauane M, Su Z Z, Dash R, et al. “Ceramide plays a prominent role in MDA-7/IL-24-induced cancer-specific apoptosis” J Cell Physiol. 2010 March; 222(3):546-55.
# [7] = target: T1, S1R (Homo sapiens, UniProt Q99720); experiment: Co-immunoprecipitation of S1R with IL-24; format: binding; conditions: 100 pfu/cell Ad.IL-24, 48 hours
# T1 construct: DU-145 cells were infected with Ad.IL-24; endogenous in cells; host or cells: DU145 cells (ATCC), infected with Ad.IL-24 or Ad.vector
# Description: In FIG. 3A, DU145 cells were infected with 100 pfu/cell of Ad.vector or Ad.IL-24 and immunoprecipitation analysis was done 48 hours later using S1R antibody.
# In FIG. 3B, DU-145 cells were infected with 100 pfu/cell of Ad.vector or Ad.IL-24 and immunoprecipitation analysis was done 48 hours later using IL-24 antibody.
# Co-immunoprecipitation of S1R with IL-24. Cells were infected with Ad.vector or Ad.IL-24. After 48 hours, protein was extracted from subconfluent cultures using lysis buffer (Pierce, Rockford, Ill.) containing 1 mM phenylmethlsulfonylfluoride (Sigma-Aldrich, Inc) and quantified using the BCA protein assay kit (Pierce, Rockford, Ill.). Antibodies were conjugated to Protein-G beads according, the Sigma Protein-G Immunoprecipitation Kit manufacturer's instructions (Sigma-Aldrich, Inc). Western blot analysis was done as described before using the following primary antibodies at 1:1,000 dilutions: anti-IL-24, and anti-S1R. Secondary antibodies specific for heavy chain of immunoglobulin G (IgG) were used as the light chain of IgG interfered with detection of IL-24 because of similar size.
# [8] = target: T1, S1R; experiment: Immunofluorescence co-localization of IL-24 and S1R; format: cell-based; conditions: DU145 cells infected with Ad.IL-24; 24 h; confocal immunofluorescence
# Description: In FIG. 3A and FIG. 3B, comparative co-localization of IL-24 and S1R proteins was analyzed in DU145 cells after infection with the Ad.IL-24 virus. […] DU-145 cells were infected with Ad.IL-24. After 24 h, cells were fixed and IL-24 and S1R proteins were detected by immunofluorescence using anti-IL-24 and anti-S1R antibodies. The analysis of co-localization of IL-24 and S1R was performed using a DMI6000B inverted confocal microscope with TCS SP5 system (Leica Microsystems CMS). Without wishing to be bound to any particular theory, S1R is believed to interact with IL-24.
# Immunofluorescence. Cells were seeded onto chamber slides (Falcon; BD Biosciences, San Jose, Calif.) and maintained in DMEM with 10% fetal bovine calf serum, 24 hours postinfection, cells were fixed with 2% paraformaldehyde, permeabilized by 0.1% Triton X-100, and then incubated with primary antibodies: IL-24, and S1R. Controls were incubated with only the secondary antibodies under the same experimental conditions.
# T1 sequence (Q99720 whole entry): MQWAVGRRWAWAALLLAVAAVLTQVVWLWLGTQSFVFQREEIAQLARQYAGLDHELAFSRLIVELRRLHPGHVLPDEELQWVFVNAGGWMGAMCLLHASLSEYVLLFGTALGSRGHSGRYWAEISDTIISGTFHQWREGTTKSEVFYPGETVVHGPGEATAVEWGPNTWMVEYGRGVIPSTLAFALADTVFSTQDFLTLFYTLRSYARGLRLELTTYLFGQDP
Molecule,Ad.IL-24 increased ROS (FIG. 2C) [1],"Up-regulation by IL-24 of ER stress markers p-eIF2a, CHOP, and BiP (FIG. 2A) [2]","cytotoxic effect of Ad.IL-24, cell viability by MTT (FIG. 1A) ([3]; 100 pfu/cell Ad.IL-24 plus 10 μM (+)-SKF10047, 4 days post-infection)","Ad.IL-24-mediated killing ([3]; PC-3, LNCaP and DU145 cells, viability and apoptosis by MTT, clonogenic and AnnexinV-FITC/PI assays, effect of S1R agonist)",increase in Ca++ after Ad.IL-24 infection (FIG. 2B) [4],"cytotoxic effect of Ad.IL-24, clonogenic assay (FIG. 1C) [5]","cytotoxic effect of Ad.IL-24, percentage of apoptosis by AnnexinV-FITC/PI (FIG. 1B) ([6]; Ad.IL-24 plus 10 μM (+)-SKF10047, 48 hours post-infection)",apoptosis by Ad.IL-24 (summary statements) [6],apoptosis by Ad.IL-24 (summary statements) ([6]; listed as (+) SK-10047),"interaction with S1R: immunoprecipitation using anti-S1R antibody, immunoblotting with anti-IL-24 antibody (FIG. 3A) ([7]; DU145 cells)","interaction with S1R: immunoprecipitation using anti-IL-24 antibody, probed with anti-S1R antibody (FIG. 3B) ([7]; DU-145 cells)",co-localization with S1R [8]
(+)-SKF10047,inhibited,inhibited,substantially negated,inhibited,blocked,substantially negated,substantially negated,inhibits,blocks,–,–,–
"IL-24: member of the IL-10 cytokine family, immunomodulatory cytokine generated from Ad.IL-24 infection (protein, UniProt Q13007 52-206, looked up) Interleukin-24: QEFHFGPCQVKGVVPQKLWEAFWAVKDTMQAQDNITSARLLQQEVLQNVSDAESCYLVHTLLEFYLKTVFKNYHNRTVEVRTLKSFSTLANNFVLIVSQLQPSQENEMFSIRDSAHRRFLLFRRAFKQLDVEAALTKALGEVDILLTWMQKFYKL",–,–,–,–,–,–,–,–,–,physical interaction,coimmunoprecipitated,co-localized
